Test results from patent US10064839B2, “Methods of treating liver diseases” (Zafgen, Inc., priority 2012, dated 2018).
pIC50: −log10 of the molar value.

Experiments:
[1] = molecular target: T1, recombinant human MetAP2 (Homo sapiens, UniProt P50579); test: Recombinant human MetAP2 inhibition assay (MAS substrate, Amplex red fluorescence); format: biochemical; settings: human recombinant MetAP2 manganese enzyme, 0.75 mM MAS substrate, 30 minutes at 25° C., pH 7.5; read-out: Activity (MetAP2 IC50 class)
T1 construct: made in house; host or cells: Sf9 insect cells
T1 sequence (P50579 whole entry): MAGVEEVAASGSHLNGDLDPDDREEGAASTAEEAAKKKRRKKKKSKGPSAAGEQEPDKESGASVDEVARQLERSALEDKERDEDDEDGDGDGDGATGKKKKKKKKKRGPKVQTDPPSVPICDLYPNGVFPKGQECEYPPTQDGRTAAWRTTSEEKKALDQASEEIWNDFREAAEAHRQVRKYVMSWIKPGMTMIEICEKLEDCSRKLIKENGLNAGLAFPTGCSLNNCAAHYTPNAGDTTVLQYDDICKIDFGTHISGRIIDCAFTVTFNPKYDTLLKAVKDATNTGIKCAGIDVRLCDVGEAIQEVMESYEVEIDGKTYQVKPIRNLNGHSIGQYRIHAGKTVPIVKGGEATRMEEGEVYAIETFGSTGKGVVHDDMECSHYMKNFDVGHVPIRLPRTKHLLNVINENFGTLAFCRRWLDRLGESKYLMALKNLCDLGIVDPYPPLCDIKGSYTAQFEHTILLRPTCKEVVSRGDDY
Procedure: Compounds are tested for their capacity to inhibit recombinant human MetAP2 activity using the following assay.
Human recombinant MetAP2 expressed in Sf9 cells followed by affinity purification and EDTA treatment to remove endogenous active site cation was dialysed against MnCl2 to produce the manganese enzyme used in the assay. The assay was carried out for 30 minutes at 25° C. in 50 mM HEPES buffer containing 100 mM NaCl, pH 7.5 the presence of 0.75 mM Methionine-Alanine-Serine (MAS) substrate and 50 µg/ml amino acid oxidase using a dilution of purified MetAP2 giving >3-fold signal: noise. Cleavage of the substrate by MetAP2 and oxidation of free methionine by amino acid oxidase was detected and quantified using fluorescence generated by Amplex red (10-acetyl-3,7-dihydroxyphenoxazine) in combination with horseradish peroxidase which detects H2O2 released during the oxidation step. The fluorescent signal was detected using a multiwell fluorimeter. Compounds were diluted in DMSO prior to addition to assay buffer, the final DMSO concentration in the assay being 1%.
IC50 values are calculated using the XLfit software package (version 2.0.5).

[2] = test system: diet induced obese mice (C57BL6); test: Diet induced obese mice, 10 days oral 30 mg/kg: body weight and serum cholesterol; format: in vivo, mouse; settings: DIO C57BL6 mice, 30 mg/kg oral gavage; for Cholesterol Change: serum
Procedure: Compounds were tested in diet induced obese mice (C57BL6) that were on a 65% high fat diet for 8-10 weeks. Mice were dosed for 10 days by oral gavage with 30 mg/kg of the compounds listed. Their body weights were recorded along with serum chemistries including cholesterol.

[3] = test system: NASH mice; test: Non-alcoholic steatohepatitis (STZ + high fat diet) mouse model; format: in vivo
Procedure: NASH was induced in 48 male mice by a single subcutaneous injection of 200 μg streptozotocin (STZ; Sigma-Aldrich) in the back of mice 2 days after birth, and by feeding with high fat diet (HFD; 57 kcal % fat) after 4 weeks of age. At 5 weeks of age, the NASH mice were randomized into 6 groups of 8 mice based on body weight. Eight male littermates, fed with normal diet (without STZ treatment, were used for the Normal group. Vehicle, Compound A and Telmisartan were administered by the oral route in a volume of 10 mL/kg body weight.
Compound A was administered twice daily at doses of 1, 3 or 10 mg/kg body weight (i.e., 2, 6 or 20 mg/kg/day) and once daily at dose of 30 mg/kg body weight. Telmisartan was administered once daily at a dose of 10 mg/kg body weight.
C57BL/6 mice (15-day pregnant female) were obtained from Charles River Laboratories Japan (Japan). The animals were maintained in a SPF facility under controlled conditions of temperature (23±2° C.), humidity (45±10%), lighting (12-hour artificial light and dark cycles; light from 8:00 to 20:00) and air exchange. A high pressure (20±4 Pa) was maintained in the experimental room to prevent contamination of the facility.
Mice were fasted for 4 hours before blood was collected at the time of sacrifice. HbA1c levels were quantified in whole blood samples by DCA Vantage Analyzer (Siemens Healthcare Diagnostics, USA). For plasma biochemistry, blood was collected in polypropylene tubes with anticoagulant (Novo-Heparin;) and centrifuged at 1,000×g for 15 minutes at 4° C. The supernatant was collected and stored at −80° C. until use. Plasma levels of glucose, ALT, TG and total cholesterol were measured by FUJI DRI-CHEM 7000 (Fujifilm, Japan). Plasma insulin concentration was quantified by the Ultra Sensitive Mouse Insulin ELISA Kit.
Liver total lipid-extracts were obtained by Folch's method (Folch J. et al., J. Biol. Chem. 1957; 226: 497). Liver samples were homogenized in chloroform-methanol (2:1, v/v) and incubated overnight at room temperature. After washing with chloroform-methanol-water (8:4:3, v/v/v), the extracts were evaporated to dryness, and dissolved in isopropanol. Liver TG levels were measured by Triglyceride E-test (Wako Pure Chemical Industries). Extracts were diluted 2-fold in isopropanol when the TG content exceeded the detection limit.
For HE staining, sections were cut from paraffin blocks of liver tissue prefixed in Bouin's solution and stained with Lillie-Mayer's Hematoxylin (Muto Pure Chemicals, Japan) and eosin solution (Wako Pure Chemical Industries). NAFLD Activity score (NAS) was calculated according to the criteria of Kleiner (Kleiner D E et al., Hepatology, 2005; 41:1313). To visualize collagen deposition, Bouin's fixed liver sections were stained using picro-Sirius red solution (Waldeck, Germany). To visualize macro- and microvesicular fat, cryosections were cut from frozen liver tissues, prefixed in 10% neutral buffered formalin, embedded in Tissue-Tek O.C.T. compound (Sakura Finetek Japan, Japan), and stained with Oil Red O (Sigma-Aldrich). For immunohistochemistry, sections were cut from frozen liver tissues embedded in Tissue-Tek O.C.T. compound and fixed in acetone. Endogenous peroxidase activity was blocked using 0.03% H2O2 for 5 minutes, followed by incubation with Block Ace (Dainippon Sumitomo Pharma, Japan) for 10 minutes. The sections were incubated with a 200-fold dilution of anti-F4/80 antibody (BMA Biomedicals, Switzerland) over night at 4° C. After incubation with secondary antibody (HRP-Goat anti-rat antibody, Invitrogen, USA), enzyme-substrate reactions were performed using 3, 3′-diaminobenzidine/H2O2 solution (Nichirei, Japan). […]

| pIC50 [1] | Compound | also measured |
| --- | --- | --- |
| > 7.30 | O=C(O)c1c(NS(=O)(=O)c2ccccc2)ccc2c3c(cnc12)OCC3 | – |
| – | CCN(CC)C/C=C\c1ccccc1S(=O)(=O)Cc1ccc(-c2ccoc2)c(OC)c1C(=O)O | Body Weight Change [2]: −6.0%; Cholesterol Change [2]: No change |
| – | CCN(CC)C/C=C\c1cc(F)ccc1S(=O)(=O)Nc1ccc2c(c1C(=O)O)OCc1occc1-2 | Body Weight Change [2]: −7.0%; Cholesterol Change [2]: −35% |
| – | CCN(CC)C/C=C\c1cc(F)ccc1S(=O)(=O)Nc1ccc2c(c1C(=O)O)OC[C@H]1CCCN21 | Body Weight Change [2]: −2.0%; Cholesterol Change [2]: −24% |
| 6.30 to 7.30 | CCN1CCC[C@H]1C(=O)N(C)Cc1cc(F)ccc1S(=O)(=O)Nc1ccc2c(c1C(=O)O)OC[C@@H]1C[C@H]21 (mixture of isomers) | – |
| 6.30 to 7.30 | CCN1CC[C@@H](N(C)C(=O)Cc2cc(F)ccc2S(=O)(=O)Nc2ccc3c(c2C(=O)O)OC[C@@H]2C[C@H]32)C1 (mixture of isomers) | – |
| 6.30 to 7.30 | CCN1CC[C@H](N(C)C(=O)Cc2cc(F)ccc2S(=O)(=O)Nc2ccc3c(c2C(=O)O)OC[C@@H]2C[C@H]32)C1 (mixture of isomers) | – |
| 6.30 to 7.30 | CCN1CC[C@@H](NC(=O)Cc2cc(F)ccc2S(=O)(=O)Nc2ccc3c(c2C(=O)O)OC[C@@H]2C[C@H]32)C1 (mixture of isomers) | – |
| > 7.30 | CCN(CC)CC/C=C\c1cc(F)ccc1S(=O)(=O)Nc1ccc2c(c1C(=O)O)OC[C@@H]1C[C@H]21 (racemic) [(1aRS,7bSR)-5-[2((Z)-4-Diethylaminobut-1-enyl)-4-fluorobenzenesulfonyl-amino]-1,1a,2,7b-tetrahydrocyclopropa[c]chromene-4-carboxylic acid] | – |
| 6.30 to 7.30 | CCN(CC)C/C=C/c1cc(F)ccc1S(=O)(=O)Nc1ccc2c(c1C(=O)O)OC[C@@H]1C[C@]21C (racemic) [(1aRS,7bSR)-5-[2-((E)-3-Diethylaminoprop-1-enyl)-4-fluorobenzenesulfonylamino]-7b-methyl-1,1a,2,7b-tetrahydrocyclopropa[c]chromene-4-carboxylic acid] | – |
| > 7.30 | CCN(CC)C/C=C\c1cc(F)ccc1S(=O)(=O)Nc1ccc2c(c1C(=O)O)OC[C@@H]1[C@H]2C1(F)F (racemic) [(1aRS,7bSR)-5-[2-((Z)-3-Diethylaminoprop-1-enyl)-4-fluorobenzene-sulfonylamino]-1,1-difluoro-1,1a,2,7b-tetrahydrocyclopropa[c]chromene-4-carboxylic acid] | – |
| > 7.30 | CCN(CC)C/C=C\c1cc(F)ccc1S(=O)(=O)Nc1ccc2c(c1C(=O)O)OC[C@@H]1C[C@]21C (racemic) [(1aRS,7bSR)-5-[2-((Z)-3-Diethylaminoprop-1-enyl)-4-fluorobenzenesulfonylamino]-7b-methyl-1,1a,2,7b-tetrahydrocyclopropa[c]chromene-4-carboxylic acid] | – |
| 6.30 to 7.30 | CCN1CC(CNc2ccccc2S(=O)(=O)Nc2ccc3c(c2C(=O)O)OC[C@@H]2C[C@H]32)C1 (racemic) [(1aRS,7bSR)-5-{2-[(1-Ethylazetidin-3-ylmethyl)amino]benzene-sulfonylamino}-1,1a,2,7b-tetrahydrocyclopropa[c]chromene-4-carboxylic acid] | – |
| > 7.30 | O=C(O)c1c(NS(=O)(=O)c2ccc(F)cc2/C=C\CN2CC(O)C2)ccc2c1OC[C@@H]1C[C@H]21 (racemic) [(1aRS,7bSR)-5-{2[(Z)-3-(3-Hydroxyazetidin-1-yl)prop-1-enyl]-4-fluorobenzene-sulfonylamino}-1,1a,2,7b-tetrahydrocyclopropa[c]chromene-4-carboxylic acid] | – |
| 6.30 to 7.30 | CC(C)NC/C=C\c1cc(F)ccc1S(=O)(=O)Nc1ccc2c(c1C(=O)O)OC[C@@H]1C[C@H]21 (racemic) [(1aRS,7bSR)-5-{2[(Z)-3-(propan-2-yl)aminoprop-1-enyl]-4-fluorobenzene-sulfonylamino}-1,1a,2,7b-tetrahydrocyclopropa[c]chromene-4-carboxylic acid] | – |
| 6.30 to 7.30 | CCN1CC[C@@H](Cc2cc(F)ccc2S(=O)(=O)Nc2ccc3c(c2C(=O)O)OCC2CC32)C1 (single isomer, unassigned) [listing 1 of 2 here] | – |
| 6.30 to 7.30 | CCN(CC)C/C=C\c1ccccc1S(=O)(=O)Nc1ccc2c(c1C(=O)O)OCC1CC21 (single isomer, unassigned) [listing 1 of 2 here] | – |
| 6.30 to 7.30 | O=C(O)c1c(NS(=O)(=O)c2ccc(F)cc2/C=C\CN2CCCC2)ccc2c1OCC1CC21 (single isomer, unassigned) [listing 1 of 2 here] | – |
| > 7.30 | CCNC/C=C\c1cc(F)ccc1S(=O)(=O)Nc1ccc2c(c1C(=O)O)OCC1CC21 (single isomer, unassigned) [listing 1 of 2 here] | – |
| > 7.30 | CN(C)CCCNc1ccccc1S(=O)(=O)Nc1ccc2c(c1C(=O)O)OCC1CC21 (single isomer, unassigned) | – |
| > 7.30 | CN(C)CCCCNc1ccccc1S(=O)(=O)Nc1ccc2c(c1C(=O)O)OCC1CC21 (single isomer, unassigned) | – |
| > 7.30 | CCN1CC[C@@H](Cc2cc(F)ccc2S(=O)(=O)Nc2ccc3c(c2C(=O)O)OCC2CC32)C1 (single isomer, unassigned) [listing 2 of 2 here] | – |
| > 7.30 | CCN(CC)C/C=C\c1ccccc1S(=O)(=O)Nc1ccc2c(c1C(=O)O)OCC1CC21 (single isomer, unassigned) [listing 2 of 2 here] | – |
| 6.30 to 7.30 | O=C(O)c1c(NS(=O)(=O)c2ccc(F)cc2/C=C\CN2CCCC2)ccc2c1OCC1CC21 (single isomer, unassigned) [listing 2 of 2 here] | – |
| 6.30 to 7.30 | CCNC/C=C\c1cc(F)ccc1S(=O)(=O)Nc1ccc2c(c1C(=O)O)OCC1CC21 (single isomer, unassigned) [listing 2 of 2 here] | – |
| – | CCCc1nc2c(C)cc(-c3nc4ccccc4n3C)cc2n1Cc1ccc(-c2ccccc2C(=O)O)cc1 [Telmisartan, reference compound] | Mean body weight at the day before sacrifice ([3]; Telmisartan 10 mg/kg once daily oral, 5 to 9 weeks of age, Vehicle 18.8±1.0 g): 15.6 ± 1.8 g; Fibrosis area (Sirius red-positive area) ([3]; Telmisartan 10 mg/kg once daily, Vehicle 1.07±0.18%): 0.42±0.08%; Inflammation area (F4/80-positive area) ([3]; Telmisartan 10 mg/kg once daily, Vehicle 3.57±0.88%): 3.84±0.86%; NAFLD Activity score (NAS) ([3]; Telmisartan 10 mg/kg once daily, Vehicle 5.4±0.9): 2.3±0.7; Fat deposition area (oil red-positive area) ([3]; Telmisartan 10 mg/kg once daily, Vehicle 23.57±6.52%): 17.29±7.66%; Liver TG content ([3]; Telmisartan 10 mg/kg once daily, Vehicle 67.3±29.0): 30.7±11.4 mg/g liver |
| 6.30 to 7.30 | (1aRS,7bSR)-5-{2[(Z)-3-((S)-3-hydroxypyrrolidin-1-yl)aminoprop-1-enyl]-4-fluorobenzenesulfonylamino}-1,1a,2,7b-tetrahydrocyclopropa[c]chromene-4-carboxylic acid | – |

| Compound | pIC50 [1] | also measured |
| --- | --- | --- |
| (1aRS,7bSR)-5-{2[(Z)-3-((R)-3-Hydroxypyrrolidin-1-yl)aminoprop-1-enyl]-4-fluorobenzene-sulfonylamino}-1,1a,2,7b-tetrahydro-cyclopropa[c]chromene-4-carboxylic acid | 6.30 to 7.30 | – |
